Entries after “also recorded” stand apart in the source; their conditions may differ. Like-named read-outs stand apart in the source and are kept apart here. Marks after values point to notes of the source that are not given here.
Assays:
SdiA [1] = target: T1, SdiA (Salmonella enterica subsp. enterica serovar Typhimurium, UniProt O66040); test: S. Typhimurium-pJNS25 SdiA reporter, agonism (luminescence); assay type: cell-based; settings: for Emax: read-out: activation (%); for EC50: agonism dose–response; for fold increase: potency of thiolactone over corresponding lactone (EC50 ratio)
Description: (§1) Biological assays for SdiA activity. Cell-based reporter strains that rely on detecting the transcriptional activity of LuxR-type receptors are commonly used to assess the activity of exogenous ligands. We used the S. Typhimurium-pJNS25 reporter strain constructed by Smith and Ahmer and also used by Janssens et al. to examine SdiA activity. This strain naturally produces SdiA and contains a reporter plasmid with the promoter region for srgE fused to the luxABCDE operon of V. fischeri (see Experimental section for details of all strains and plasmids). SdiA activity is thus reported by the production of luciferase and resulting bioluminescence. We also prepared an SdiA reporter in E. coli (JLD271-pJN105SE-pSC11SE) to examine S. Typhimurium SdiA activity in an alternate background and with a different reporter gene output. […] This reporter construct uses an arabinose inducible promoter to produce S. Typhimurium SdiA and the promoter region for srgE fused to lacZ to report SdiA activity. SdiA activity is then measured using standard β-galactosidase assays. In both reporter strains, signal was normalized to the difference between the positive control (10 μM OOHL) and the negative control (1% DMSO; no compound).
(§2) Salmonella SdiA reporter assay. S. Typhimurium-pJNS25 was grown 16–18 h overnight in LB, diluted 1:100 in fresh LB medium, and then incubated for 6 h at 37 °C with shaking at 200 rpm in the presence of compounds (1% DMSO). […] All compounds were screened at 100 μM and 1 μM in triplicate in agonism and antagonism assays. […] Dose–response analyses were performed by preparing dilutions of compounds in DMSO and testing each concentration in the agonism or antagonism assays. Competition dose–response assays (data in Figure 5) were performed in the same manner as the antagonism assays, except instead of OOHL being added to the subculture, the antagonist being tested was added. Non-linear regression curve fits were generated using GraphPad Prism software (version 6) using variable slope (four parameter) dose–response analysis.

SdiA [2] = target: T1, SdiA; test: S. Typhimurium-pJNS25 SdiA reporter, competitive antagonism against 10 nM L-OOHL; assay type: cell-based; settings: for inhibition at 1 µM: read-out: Antagonism 1 μM Inhibition (%); for inhibition at 100 µM: read-out: Antagonism 100 μM Inhibition (%); for Emax: maximal inhibition, 100% minus lowest % activity in presence of 10 nM L-OOHL (2), read-out: inhibition (%); for IC50: against 10 nM L-OOHL (EC90)
Description: as §1, §2

[3] = maximal activation of the antagonists (partial agonism), Table 3
[4] = 1 μM compound, average ± STD, change in activity from 10 nM 2 (OOHL)
[5] = 100 μM compound, average ± STD, change in activity from 10 nM 2 (OOHL)
[6] = maximal activity (efficacy) from agonism dose–response, 10 μM OOHL = 100%, DMSO = 0%

T1 sequence (O66040 entry or part of it): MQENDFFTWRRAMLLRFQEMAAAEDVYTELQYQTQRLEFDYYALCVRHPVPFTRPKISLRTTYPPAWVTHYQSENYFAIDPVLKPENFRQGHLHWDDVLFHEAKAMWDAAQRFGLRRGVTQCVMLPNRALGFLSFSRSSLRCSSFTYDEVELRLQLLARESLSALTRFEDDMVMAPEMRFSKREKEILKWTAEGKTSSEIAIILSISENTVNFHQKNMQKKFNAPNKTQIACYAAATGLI

Row | SMILES | Emax (SdiA [1]; [3]) | inhibition at 1 µM (SdiA [2]; [4]) | inhibition at 100 µM (SdiA [2]; [5]) | Emax (SdiA [2]) | EC50 (SdiA [1]; read-out: EC50) | Emax (SdiA [1]; [6]) | also measured
1 | CCOC(=O)CNC(=O)Cc1ccc(OC)cc1 [F47] | 61% | 3 ± 14% | 36 ± 10% | 42% |  |  | 
2 | Cc1cccc(OCC(=O)N[C@H]2CCOC2=O)c1 [E16] |  | -2 ± 8% | -4 ± 5% |  | 0.0433 µM | 100% | 
3 | CCCC(=O)N[C@H]1CCSC1=O [F8] |  | -5 ± 10% | -23 ± 11% |  | 0.0628 µM | 91% | fold increase (SdiA [1]): 9.20
4 | CSc1ccc(CCC(=O)N[C@H]2CCOC2=O)cc1 [E34] | 66% | 21 ± 15% | 39 ± 8% | 30% |  |  | 
5 | O=C(Oc1c(Br)cc(Br)cc1CNC(=O)c1ccccc1[N+](=O)[O-])c1ccccc1Cl [19R, reference compound] | 40% | 43 ± 10% | 38 ± 11% | 44% |  |  | 
6 | O=C(Nc1ccccc1NC(=O)c1cccc(Cl)c1)c1cccc(Cl)c1 [compound 20, reference compound] | 47% | 35 ± 18% | 39 ± 17% | 53% |  |  | 
7 | O=C(Cc1cccc(Cl)c1)N[C@H]1CCOC1=O [C6] |  | 9 ± 16% | -20 ± 6% |  | 0.0519 µM | 95% | 
8 | CCOC(=O)CNC(=O)Cc1cccc([N+](=O)[O-])c1 [F40] | 56% | 21 ± 8% | 43 ± 4% | 33% |  |  | IC50 (SdiA [2]): 27.8 µM
9 | Cc1cccc(CC(=O)N[C@H]2CCOC2=O)c1 [E1] |  | -6 ± 7% | -14 ± 13% |  | 0.0664 µM | 99% | 
10 | O=C(Cc1ccc(-c2ccccc2)cc1)N[C@H]1CCOC1=O [C18] | 48% | 11 ± 3% | 52 ± 10% | 40% |  |  | 
11 | CCCCCCCCCCOc1ccc(C(=O)N[C@H]2CCOC2=O)cc1 [R7] | 6% | 8 ± 6% | 43 ± 15% | 51% |  |  | IC50 (SdiA [2]): 3.1 µM
12 | O=C(Cc1ccc(-c2ccccc2)cc1)N[C@H]1CCSC1=O [F13] | 59% | 23 ± 4% | 46 ± 15% | 51% |  |  | IC50 (SdiA [2]): 2.35 µM
13 | COc1ccc(CC(=O)N[C@H]2CCSC2=O)cc1 [F12] |  | -13 ± 10% | -21 ± 8% |  | 0.0388 µM | 84% | fold increase (SdiA [1]): 6.49
14 | [N-]=[N+]=NCCCCCCCCCCCC(=O)N[C@H]1CCOC1=O [Az-11] |  | -1 ± 17% | -35 ± 6% |  |  |  | EC50 (SdiA [1]): 0.125 µM; activation (%) (SdiA [1]; [6]): fully agonize; Emax (SdiA [1]): 110%
15 | CSc1cccc(CC(=O)N[C@H]2CCOC2=O)c1 [E7] |  | 20 ± 14% | 12 ± 13% |  | 0.026 µM | 91% | 
16 | O=C(Cc1cccc([N+](=O)[O-])c1)N[C@H]1CCSC1=O [F11] |  | -11 ± 7% | -16 ± 13% |  | 0.00247 µM | 97% | fold increase (SdiA [1]): 11.5
17 | CCCCCC(=O)N[C@H]1CCOC1=O [A2] |  | 15 ± 4% | 3 ± 1% |  | 0.0209 µM | 81% | 

Row | SMILES | Emax (SdiA [1]; [3]) | inhibition at 1 µM (SdiA [2]; [4]) | inhibition at 100 µM (SdiA [2]; [5]) | Emax (SdiA [2]) | EC50 (SdiA [1]; read-out: EC50) | Emax (SdiA [1]; [6]) | also measured
18 | CCCCCCC(CCCC)C(=O)N[C@H]1CCOC1=O (stereo partly shown) [S2] | 63% | 48 ± 3% | 2 ± 11% | 32% |  |  | 
19 | CCCCCCCC(=O)N[C@H]1CCOC1=O [A3] |  |  |  |  | 0.0181 µM |  | Antagonism 1 μM Inhibition (%) (SdiA [2]; [4]): 10 ± 8%; Antagonism 100 μM Inhibition (%) (SdiA [2]; [5]): 13 ± 14%
20 | CCCCCCCCCCCC(=O)N[C@H]1CCOC1=O [A5] | 57% | 17 ± 10% | 43 ± 4% | > 50% |  |  | 
21 | O=C(CC1CCCCC1)N[C@H]1CCOC1=O [S7] |  | 7 ± 14% | 1 ± 7% |  | 0.106 µM | 89% | 
22 | O=C(CCc1cccc(I)c1)N[C@H]1CCOC1=O [E33] | 67% | 20 ± 6% | 38 ± 10% | 19% |  |  | IC50 (SdiA [2]): 9.64 µM
23 | CCOC(=O)CNC(=O)Cc1ccc(Br)cc1 [F39] | 50% | 27 ± 9% | 53 ± 11% | 55% |  |  | 
24 | COc1ccc(CC(=O)N[C@H]2CCOC2=O)cc1 [C24] |  |  |  |  | 0.252 µM |  | Antagonism 1 μM Inhibition (%) (SdiA [2]; [4]): -11 ± 3%; Antagonism 100 μM Inhibition (%) (SdiA [2]; [5]): 4 ± 16%
25 | O=C(Cc1ccc(I)cc1)N[C@H]1CCOC1=O [C10] |  |  |  |  |  |  | EC50 (SdiA [1]): 0.0472 µM; Emax (SdiA [1]): 67%; inhibition at 1 µM (SdiA [2]): 28 ± 6%; inhibition at 100 µM (SdiA [2]): 27 ± 13%
26 | CCCCCCCC(=O)OCC(O)CO (racemic) [compound 23, 1-octanoyl-rac-glycerol, reference compound] |  | 8 ± 14% | 12 ± 4% |  |  |  | activity in the SdiA reporter assay (in words) (SdiA [1]; S. Typhimurium reporter): no agonism; also recorded: no activity
27 | Cc1ccc(OCC(=O)N[C@H]2CCOC2=O)cc1 [E15] |  | -3 ± 5% | -17 ± 7% |  | 0.033 µM | 98% | 
28 | O=C(Cc1cccc(I)c1)N[C@H]1CCOC1=O [C11] |  | 15 ± 11% | -4 ± 2% |  | 0.0206 µM | 90% | 
29 | CSc1ccc(CC(=O)N[C@H]2CCOC2=O)cc1 [E6] | 74% | 25 ± 16% | 44 ± 13% | 49% |  |  | 
30 | CCCCCC(=O)CC(=O)N[C@H]1CCSC1=O [F2] |  | -19 ± 12% | -19 ± 15% |  | 0.0007 µM | 119% | fold increase (SdiA [1]): 1.47^c
31 | CCCCCCCC(=O)N[C@H]1CCSC1=O [F5] |  | 3 ± 6% | 0% |  | 0.00228 µM | 79% | fold increase (SdiA [1]): 8.12
32 | O=C(Cc1cccc(Br)c1)N[C@H]1CCOC1=O [C8] |  | 21 ± 10% | -22 ± 9% |  | 0.0191 µM | 96% | 
33 | N#Cc1cccc(CC(=O)N[C@H]2CCOC2=O)c1 [E5] |  | 18 ± 8% | -8 ± 4% |  | 0.0622 µM | 73% | 
